Assay results from ChEMBL document CHEMBL1201862, “PubChem BioAssay data set” (2004).
Active and inactive are the calls of the source.

Legend:
[1] = Luminescence Cell-Based Dose Confirmation HTS to Identify Activators of 5'UTR Stem-Loop Driven Alpha-Synuclein mRNA Translation in H4 Neuroglioblastoma Cells. [Related pubchem assays: 1829 (Project Summary), 1814 (Primary HTS)]; assay type: functional
H4 = experiment: Luminescence Cell-Based Dose Response HTS to Identify Activators of 5'UTR Stem-Loop Driven Prion Protein mRNA Translation in H4 Neuroglioblastoma Cells. [Related pubchem assays: 1829 (Project Summary), 1814 (Primary HTS)]; assay type: functional; settings: Homo sapiens
[2] = Luminescence Cell-Based Dose Response HTS to Identify Activators of Luciferase Translation or Activity in H4 […] Cells. [Related pubchem assays: 1829 (Project Summary), 1814 (Primary HTS)]; assay type: functional
[3] = target: T1, High affinity choline transporter 1 (Homo sapiens, UniProt Q9GZV3); experiment: CHT inhibitors, dose response, cell-based, 5-point CRC, membrane potential dye (AID 504840); assay type: functional
T1 sequence (Q9GZV3 whole entry): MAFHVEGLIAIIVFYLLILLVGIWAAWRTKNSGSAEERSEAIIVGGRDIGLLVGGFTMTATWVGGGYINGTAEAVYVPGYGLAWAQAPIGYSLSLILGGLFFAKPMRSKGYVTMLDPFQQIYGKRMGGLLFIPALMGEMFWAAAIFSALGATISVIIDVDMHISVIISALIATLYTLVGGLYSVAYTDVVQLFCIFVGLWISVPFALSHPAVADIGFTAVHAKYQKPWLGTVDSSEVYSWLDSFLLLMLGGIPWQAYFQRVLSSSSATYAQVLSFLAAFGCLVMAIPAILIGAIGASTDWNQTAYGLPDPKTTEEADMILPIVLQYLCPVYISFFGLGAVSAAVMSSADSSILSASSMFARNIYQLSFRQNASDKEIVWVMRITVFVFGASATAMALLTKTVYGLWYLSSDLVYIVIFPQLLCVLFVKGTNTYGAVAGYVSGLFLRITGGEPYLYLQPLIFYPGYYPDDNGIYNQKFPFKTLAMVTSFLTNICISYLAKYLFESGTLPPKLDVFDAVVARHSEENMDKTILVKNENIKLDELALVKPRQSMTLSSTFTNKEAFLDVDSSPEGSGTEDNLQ

[4] = target: T2, Ubiquitin-conjugating enzyme E2 N (Homo sapiens, UniProt P61088); assay type: functional;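 also: Dose-response confirmation in a TR-FRET assay detecting UBC13-driven polyubiquitin chain formation, inhibition measured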
T2 sequence (P61088 whole entry): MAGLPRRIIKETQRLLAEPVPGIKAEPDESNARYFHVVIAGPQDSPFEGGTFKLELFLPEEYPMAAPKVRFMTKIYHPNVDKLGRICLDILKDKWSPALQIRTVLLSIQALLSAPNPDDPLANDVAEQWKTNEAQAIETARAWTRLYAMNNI

[5] = inhibitors of intracellular T. cruzi replication, confirmation, NIH3T3 host cells, beta-gal luminescence (AID 2044); assay type: functional, cell-based;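 also: intracellular parasites grown in NIH/3T3 mouse fibroblasts as host cells; luminescent beta-galactosidase reporter signal from transgenic T. cruzi replicating inside host cells; inhibitors lower the luminescence signal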
[6] = cytotoxicity toward NIH3T3 fibroblasts, dose response, counter-screen, cell-based, ATP luminescence, mouse fibroblasts (AID 2010); assay type: functional;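 also: cells exposed to compound for about 90 hours before reading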
INS1 = experiment: beta cell apoptosis inhibitors, cytokine rescue, dose response, luminescence, retest (AID 449756); assay type: functional, cell-based; settings: Rattus norvegicus;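 also: cell death triggered by IL-1 beta plus TNF-alpha plus IFN-gamma mixture; protective hits raise ATP signal compared with cytokine alone wells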
Fatty acid synthase = Fatty acid synthase (Homo sapiens, UniProt P49327); experiment: FAS thioesterase domain inhibitors, dose response, biochemical, kinetic fluorescence intensity (AID 624326); assay type: functional;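 also: rate of fluorescence rise from hydrolysis of a fluorogenic O-methyl fluorescein ester substrate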
H9c2 = experiment: cells; assay type: functional, cell-based; settings: Rattus norvegicus, H9c2, Myocardium;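 also: confirmatory concentration-response retest of ultra-high-throughput screening hits for modulation of myocardial damage; cell death induced by hydrogen peroxide oxidative stress; compound pretreatment for 60 min then peroxide exposure for 2 h; potency is for protecting the cells against peroxide damage rather than for killing them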
[7] = target: T3, Heat shock factor protein 1 (Mus musculus, UniProt P38532); experiment: HSF1 potentiators in luciferase reporter cells, confirmation, cell-based, NIH3T3, luminescence, dose retest (AID 435004); assay type: functional;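 also: stress induced by proteasome inhibitor MG132 added 30 min after compound; luciferase reporter driven by HSF1 response element in NIH3T3 cells; actives raise luminescence as potentiators of the MG132 stress response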
T3 sequence (P38532 whole entry): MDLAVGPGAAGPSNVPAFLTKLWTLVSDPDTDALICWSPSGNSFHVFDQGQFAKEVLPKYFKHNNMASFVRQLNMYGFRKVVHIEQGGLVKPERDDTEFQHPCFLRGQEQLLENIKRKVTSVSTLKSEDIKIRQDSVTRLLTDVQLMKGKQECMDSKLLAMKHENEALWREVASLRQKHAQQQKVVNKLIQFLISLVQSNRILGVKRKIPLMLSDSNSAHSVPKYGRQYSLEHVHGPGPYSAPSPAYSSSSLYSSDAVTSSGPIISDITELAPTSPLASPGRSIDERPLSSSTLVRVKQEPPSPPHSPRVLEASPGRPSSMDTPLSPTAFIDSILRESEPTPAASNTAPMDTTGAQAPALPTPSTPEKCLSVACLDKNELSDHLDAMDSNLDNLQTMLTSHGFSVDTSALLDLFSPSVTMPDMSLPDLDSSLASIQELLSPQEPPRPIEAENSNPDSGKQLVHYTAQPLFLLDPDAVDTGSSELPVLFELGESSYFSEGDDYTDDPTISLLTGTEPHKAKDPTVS

[8] = ZM109 Env clade C HIV-1 fusion inhibitors, dose response, HeLa effector, CEM target cells, luciferase, cherry-pick (AID 652058); assay type: functional, cell-based
[9] = target: FAD-linked sulfhydryl oxidase ALR (Homo sapiens, UniProt P55789); experiment: inhibitors of human ALR sulfhydryl oxidase, dose response, biochemical, H2O2 detection, luminescence, cherry-pick (AID 493248)
[10] = inhibitors of clade B AD8 Env fusion, dose response, cell-based, cherry-pick (AID 652062); assay type: functional;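 also: luciferase signal from cell-cell fusion driven by HIV-1 clade B AD8 Env; potency is for inhibitors of fusion seen as a drop in luminescence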
[11] = inhibitors of HIV Env-driven cell fusion, dose response, cherry-pick (AID 652057); assay type: functional, cell-based
Paired box protein Pax-8 = Paired box protein Pax-8 (Homo sapiens, UniProt Q06710); experiment: inhibitors of PAX8-driven TPO luciferase reporter, dose response, RMG-I cells, cherry-pick (AID 687027); assay type: functional, cell-based;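 also: luciferase reporter driven by Pax8 target thyroperoxidase promoter measured by SteadyGlo luminescence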
[12] = NIH:OVCAR-3 ovarian cancer cell cytotoxicity, dose response, PAX8 inhibitor project, plate reader, dry powder samples (AID 743044); assay type: functional, cell-based

Paired box protein Pax-8, sequence (Q06710 whole entry): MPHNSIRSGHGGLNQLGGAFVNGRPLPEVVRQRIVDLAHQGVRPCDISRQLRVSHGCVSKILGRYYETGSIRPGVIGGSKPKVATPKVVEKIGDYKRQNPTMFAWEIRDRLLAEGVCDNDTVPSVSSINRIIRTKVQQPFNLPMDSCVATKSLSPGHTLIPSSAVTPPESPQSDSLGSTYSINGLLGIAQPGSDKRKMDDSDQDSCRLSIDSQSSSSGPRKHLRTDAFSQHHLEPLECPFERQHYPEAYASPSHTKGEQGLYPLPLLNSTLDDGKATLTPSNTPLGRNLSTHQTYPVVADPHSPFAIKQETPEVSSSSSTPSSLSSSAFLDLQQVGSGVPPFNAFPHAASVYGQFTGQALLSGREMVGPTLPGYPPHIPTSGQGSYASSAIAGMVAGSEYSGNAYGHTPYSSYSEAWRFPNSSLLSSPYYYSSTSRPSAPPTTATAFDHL
FAD-linked sulfhydryl oxidase ALR, sequence (P55789 whole entry, the tested form may be a part): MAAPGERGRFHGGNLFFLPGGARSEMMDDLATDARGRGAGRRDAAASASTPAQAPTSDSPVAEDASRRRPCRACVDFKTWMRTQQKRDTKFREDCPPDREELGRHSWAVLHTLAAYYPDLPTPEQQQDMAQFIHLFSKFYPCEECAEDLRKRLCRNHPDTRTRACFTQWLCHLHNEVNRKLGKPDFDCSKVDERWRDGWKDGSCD
Fatty acid synthase, sequence (P49327 whole entry, the tested form may be a part): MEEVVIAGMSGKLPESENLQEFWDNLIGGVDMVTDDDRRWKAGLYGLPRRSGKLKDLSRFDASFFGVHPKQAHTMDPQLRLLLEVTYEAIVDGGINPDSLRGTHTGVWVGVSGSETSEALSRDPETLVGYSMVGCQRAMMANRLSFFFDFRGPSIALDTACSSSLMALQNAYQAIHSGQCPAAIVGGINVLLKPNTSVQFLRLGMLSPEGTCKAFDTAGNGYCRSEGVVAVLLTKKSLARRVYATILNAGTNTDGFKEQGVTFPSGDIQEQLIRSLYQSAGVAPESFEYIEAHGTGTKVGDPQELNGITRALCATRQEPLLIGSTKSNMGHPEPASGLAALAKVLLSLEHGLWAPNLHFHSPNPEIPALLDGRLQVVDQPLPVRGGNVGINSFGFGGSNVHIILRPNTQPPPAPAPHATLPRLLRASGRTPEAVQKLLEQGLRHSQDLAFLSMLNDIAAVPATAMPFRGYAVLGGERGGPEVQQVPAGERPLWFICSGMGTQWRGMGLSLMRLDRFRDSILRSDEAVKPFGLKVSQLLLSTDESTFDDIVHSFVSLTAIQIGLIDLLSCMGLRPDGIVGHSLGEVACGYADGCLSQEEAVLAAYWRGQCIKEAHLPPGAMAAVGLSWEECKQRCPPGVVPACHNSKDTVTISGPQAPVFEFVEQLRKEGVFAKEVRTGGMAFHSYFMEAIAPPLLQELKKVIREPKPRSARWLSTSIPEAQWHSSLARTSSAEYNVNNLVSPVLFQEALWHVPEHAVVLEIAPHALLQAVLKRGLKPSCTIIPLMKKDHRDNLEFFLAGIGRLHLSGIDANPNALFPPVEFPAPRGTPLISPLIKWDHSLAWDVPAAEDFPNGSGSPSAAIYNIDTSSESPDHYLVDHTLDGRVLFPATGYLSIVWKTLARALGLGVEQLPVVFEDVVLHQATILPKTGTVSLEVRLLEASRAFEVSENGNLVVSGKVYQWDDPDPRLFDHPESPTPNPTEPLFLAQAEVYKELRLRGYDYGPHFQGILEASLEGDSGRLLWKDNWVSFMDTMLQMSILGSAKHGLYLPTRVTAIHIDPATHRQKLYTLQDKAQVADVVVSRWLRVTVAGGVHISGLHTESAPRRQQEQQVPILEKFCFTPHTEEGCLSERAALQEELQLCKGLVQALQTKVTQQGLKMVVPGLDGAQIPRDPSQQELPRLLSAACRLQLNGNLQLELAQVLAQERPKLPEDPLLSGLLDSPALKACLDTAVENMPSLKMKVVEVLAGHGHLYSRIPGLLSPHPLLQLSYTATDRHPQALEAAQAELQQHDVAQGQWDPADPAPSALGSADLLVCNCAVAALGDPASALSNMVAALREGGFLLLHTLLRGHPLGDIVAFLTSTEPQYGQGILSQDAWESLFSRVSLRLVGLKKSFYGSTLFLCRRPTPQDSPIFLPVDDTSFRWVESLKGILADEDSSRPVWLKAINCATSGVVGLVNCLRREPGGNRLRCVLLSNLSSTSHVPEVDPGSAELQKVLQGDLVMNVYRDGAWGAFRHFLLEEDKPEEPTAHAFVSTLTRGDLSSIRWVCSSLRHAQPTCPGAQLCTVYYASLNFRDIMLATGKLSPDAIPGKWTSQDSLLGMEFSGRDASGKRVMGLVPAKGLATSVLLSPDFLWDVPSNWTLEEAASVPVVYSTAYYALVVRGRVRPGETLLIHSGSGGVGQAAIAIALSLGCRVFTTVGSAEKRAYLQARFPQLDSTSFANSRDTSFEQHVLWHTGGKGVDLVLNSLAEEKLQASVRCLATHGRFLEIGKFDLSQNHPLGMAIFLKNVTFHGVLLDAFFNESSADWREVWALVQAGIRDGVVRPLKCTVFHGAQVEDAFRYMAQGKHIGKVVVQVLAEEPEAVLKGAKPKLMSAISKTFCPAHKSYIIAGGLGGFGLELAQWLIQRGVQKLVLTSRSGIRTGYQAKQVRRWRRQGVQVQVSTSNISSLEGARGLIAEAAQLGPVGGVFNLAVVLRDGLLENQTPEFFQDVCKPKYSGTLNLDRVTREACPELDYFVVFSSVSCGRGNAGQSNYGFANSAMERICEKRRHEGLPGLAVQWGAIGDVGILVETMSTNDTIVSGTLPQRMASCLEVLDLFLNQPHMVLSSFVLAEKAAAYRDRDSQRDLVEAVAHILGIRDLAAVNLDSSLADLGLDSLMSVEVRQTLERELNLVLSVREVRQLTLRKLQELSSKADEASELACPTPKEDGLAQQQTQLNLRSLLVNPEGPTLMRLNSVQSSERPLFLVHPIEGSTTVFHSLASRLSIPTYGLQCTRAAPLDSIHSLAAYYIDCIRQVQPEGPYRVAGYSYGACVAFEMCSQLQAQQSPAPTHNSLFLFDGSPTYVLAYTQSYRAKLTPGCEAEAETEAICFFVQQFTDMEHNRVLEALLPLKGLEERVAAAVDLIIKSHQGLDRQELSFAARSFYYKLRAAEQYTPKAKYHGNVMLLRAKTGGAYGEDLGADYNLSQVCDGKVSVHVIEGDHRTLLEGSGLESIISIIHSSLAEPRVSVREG

SMILES: Cc1ccc(Nc2nc(CSc3nnc(-c4ccc(F)cc4)n3C)cs2)cc1
- EC50 [1]: 17.2 µM (active)
- EC50 (H4): 15 µM (active)
- EC50 [2]: 16.9 µM (active)
- IC50 [3]: 15.8 µM (active)

SMILES: CCCc1cc(Nc2c(C)n(C)n(-c3ccccc3)c2=O)n2c(nc3ccccc32)c1C#N
- IC50 [3]: 13.8 µM (active)

SMILES: O=C1c2cc(Cl)ccc2OC2(CCNCC2)C12CC(c1ccc(Cl)cc1)=NO2 (stereo unspecified)
- IC50 [4]: > 20 µM (inactive)

SMILES: c1ccc2c(CN3CCCCCCC3)c[nH]c2c1
- EC50 [5]: 1.15 µM (active)
- EC50 [6]: > 30 µM (not active)
- IC50 [3]: 12.6 µM (active)
- AC50 (INS1): 4.22 µM (active)

SMILES: CCN(CC(=O)Nc1cccc(OC)c1)c1ncnc2sc(C)c(C)c12
- IC50 [3]: 7.24 µM (active)

SMILES: O=C(c1cc2c(nc1O)CCCC2)N1CCc2c([nH]c3ccccc23)C1c1ccccc1F (stereo unspecified)
- IC50 [3]: 19.1 µM (active)

SMILES: CCCc1cc(C(=O)Nc2cccc([N+](=O)[O-])c2)cs1
- IC50 (Fatty acid synthase): 8.66 µM (active)

SMILES: O=C(CSc1nc2ccccc2[nH]1)c1ccc2c(c1)OCO2
- IC50 [3]: 10 µM (active)

SMILES: CNC(=O)COC(=O)/C=C/c1cn(-c2ccccc2)nc1-c1ccc(C)o1
- IC50 [4]: > 20 µM (inactive)
- IC50 (H9c2): > 79 µM (inactive)

SMILES: CCc1nc2ccccc2c(C(=O)OCCN2C(=O)c3ccccc3C2=O)c1C
- IC50 [4]: > 20 µM (inactive)

SMILES: C=C(C)CN(CC)c1nc(N)c2c(N)nc3c(c2c1C#N)CC(=O)N3C12CC3CC(CC(C3)C1)C2
- EC50 [5]: 1.69 µM (active)
- EC50 [6]: > 60 µM (not active)
- EC50 [7]: > 260 µM (inactive)
- AC50 [8]: 7.36 µM (active)

SMILES: Sc1n[nH]c(-c2cc(Cl)cc(Cl)c2)n1
- AC50 [9]: 1.72 µM (active)
- IC50 [3]: 10.5 µM (active)

SMILES: CC(C)N(C)CCOC(=O)C1COc2ccccc2O1 (stereo unspecified)
- IC50 [3]: 13.8 µM (active)

SMILES: COc1ccccc1Nc1ncnc2ccc(C)cc12
- IC50 [3]: 13.8 µM (active)

SMILES: C#CCOCCOCCOCCNc1nc(N2CCN(C(=O)[C@H](CCCN=C(N)N)n3cc(C(N)[C@@H](C)CC)nn3)CC2)nc(N2CCN(C(=O)[C@H](CCCCN)n3cc([C@@H](N)CC(N)=O)nn3)CC2)n1 (stereo partly specified)
- IC50 [4]: > 20 µM (inactive)

SMILES: Cc1ccc(C(=O)Nc2ccc(S(=O)(=O)NC3=NCCCCC3)cc2)c(C)c1
- IC50 [3]: 10.8 µM (active)

SMILES: CC(C)NC(=O)Nc1ccc2c(c1)C(=O)N([C@@H](C)CO)C[C@@H](C)[C@@H](CN(C)C(=O)CCC(F)(F)F)OCCCC[C@@H](C)O2
- AC50 [10]: 2.7 µM (active)
- AC50 [11]: 0.969 µM (active)
- AC50 [8]: 0.518 µM (active)

SMILES: COc1ccc2c3c(n(C)c2c1)[C@@H](CO)N(C(=O)Nc1ccc(F)cc1)CC31CCN(S(=O)(=O)c2cccc(C)c2)CC1
- AC50 (Paired box protein Pax-8): 5.97 µM (active)
- AC50 [12]: 64 µM (active)

SMILES: CCCNC(=O)N1[C@H](C#N)[C@H](c2ccc(-c3ccc(C(=O)N(C)C)cc3)cc2)[C@@H]1CO
- AC50 [10]: 0.784 µM (active)
- AC50 [8]: 32.8 µM (active)

SMILES: Cc1ccc(S(=O)(=O)N(C)C[C@@H]2Oc3cc(C4=CCCC4)ccc3S(=O)(=O)N([C@@H](C)CO)C[C@H]2C)cc1
- AC50 [10]: 41.6 µM (active)
- AC50 [11]: 4.07 µM (active)
- AC50 [8]: 67.6 µM (active)

SMILES: O=C(C[C@@H]1C[C@@H]2c3cc(NC(=O)Cc4ccncc4)ccc3O[C@@H]2[C@H](CO)O1)NCc1ccc(-c2ccccc2)cc1
- AC50 (Paired box protein Pax-8): 13.3 µM (active)
- AC50 [12]: 37.8 µM (active)

SMILES: C[C@H]1CN([C@@H](C)CO)C(=O)Cc2cc(NC(=O)NC3CCCCC3)ccc2O[C@H]1CN(C)S(=O)(=O)c1ccc(Cl)cc1
- AC50 (Paired box protein Pax-8): 11.9 µM (active)
- AC50 [12]: 13.5 µM (active)
